Earlier results in paper PMC6986806 (Nature chemical biology, 2020).

Tested on: GluN1/GluN2D

COc1ccc(OCC2c3cc(OC)c(OC)cc3CCN2C(=O)c2cccc(Cl)c2)cc1 (stereo not shown) [CIQ]
effect on GluN1/GluN2D unitary current: no effect
